Experimental data as given in ChEMBL document CHEMBL4177695, “Identification of pyruvate dehydrogenase kinase 1 inhibitors with anti-osteosarcoma activity” (Bioorg Med Chem Lett, 2017).
pEC50, pIC50: −log10 of the molar value. The source made the active and inactive calls. No cut-off for these calls is given here.

Experiments:
[1] = target: [Pyruvate dehydrogenase (acetyl-transferring)] kinase isozyme 2, mitochondrial (Homo sapiens, UniProt Q15119); assay: Inhibition of recombinant human GST-tagged PDK2 expressed in baculovirus infected Sf9 cells using PDHA1 as substrate measured after 1 hr by ELISA
[2] = test system: MG-63; assay: Anti-proliferative activity against human MG63 cells after 72 hrs by MTT assay; assay type: functional, cell-based; conditions: for pEC50: MG-63, 72 h
[3] = target: T1, [Pyruvate dehydrogenase (acetyl-transferring)] kinase isozyme 1, mitochondrial (Homo sapiens, UniProt Q15118); conditions: 10 mM
Description: Inhibition of PDK1 in human MG63 cells assessed as reduction in pyruvate dehydrogenase complex phosphorylation at ser293 residue at 10 mM after 12 hrs by high content analysis

[4] = target: T1, [Pyruvate dehydrogenase (acetyl-transferring)] kinase isozyme 1, mitochondrial; conditions: 10 mM; remark: listed apart in the source
Description: Inhibition of PDK1 in human MG63 cells assessed as reduction in pyruvate dehydrogenase complex phosphorylation at ser232 residue at 10 mM after 12 hrs by high content analysis

[5] = target: T1, [Pyruvate dehydrogenase (acetyl-transferring)] kinase isozyme 1, mitochondrial; conditions: 10 mM; remark: listed apart in the source
Description: Inhibition of PDK1 in human MG63 cells assessed as reduction in pyruvate dehydrogenase complex phosphorylation at ser293 residue at 10 mM after 24 hrs by Western blot analysis

[6] = target: T1, [Pyruvate dehydrogenase (acetyl-transferring)] kinase isozyme 1, mitochondrial; conditions: 10 mM; remark: listed apart in the source
Description: Inhibition of PDK1 in human MG63 cells assessed as reduction in pyruvate dehydrogenase complex phosphorylation at ser232 residue at 10 mM after 24 hrs by Western blot analysis

[7] = target: T1, [Pyruvate dehydrogenase (acetyl-transferring)] kinase isozyme 1, mitochondrial; assay: Inhibition of recombinant human GST-tagged PDK1 expressed in baculovirus infected Sf9 cells at 10 uM using PDHA1 as substrate measured after 1 hr by ELISA relative to control
[8] = target: T1, [Pyruvate dehydrogenase (acetyl-transferring)] kinase isozyme 1, mitochondrial; assay: Inhibition of recombinant human GST-tagged PDK1 expressed in baculovirus infected Sf9 cells using PDHA1 as substrate measured after 1 hr by ELISA
[9] = target: T1, [Pyruvate dehydrogenase (acetyl-transferring)] kinase isozyme 1, mitochondrial; assay: Potency index, ratio of DCA IC50 to test compound IC50 for recombinant human GST-tagged PDK1 expressed in baculovirus infected Sf9 cells
[10] = target: T1, [Pyruvate dehydrogenase (acetyl-transferring)] kinase isozyme 1, mitochondrial; assay: Inhibition of PDK1 in human MG63 cells assessed as reduction in pyruvate dehydrogenase complex phosphorylation at ser293 residue at 3 uM after 12 hrs by high content analysis relative to control; assay type: cell-based
[11] = target: T1, [Pyruvate dehydrogenase (acetyl-transferring)] kinase isozyme 1, mitochondrial; assay: Inhibition of PDK1 in human MG63 cells assessed as reduction in pyruvate dehydrogenase complex phosphorylation at ser293 residue at 6 uM after 12 hrs by high content analysis relative to control; assay type: cell-based
[12] = target: T1, [Pyruvate dehydrogenase (acetyl-transferring)] kinase isozyme 1, mitochondrial; assay: Inhibition of PDK1 in human MG63 cells assessed as reduction in pyruvate dehydrogenase complex phosphorylation at ser293 residue at 12 uM after 12 hrs by high content analysis relative to control; assay type: cell-based
[13] = target: T1, [Pyruvate dehydrogenase (acetyl-transferring)] kinase isozyme 1, mitochondrial; assay: Inhibition of PDK1 in human MG63 cells assessed as reduction in pyruvate dehydrogenase complex phosphorylation at ser293 residue after 12 hrs by high content analysis; assay type: cell-based
[14] = target: T1, [Pyruvate dehydrogenase (acetyl-transferring)] kinase isozyme 1, mitochondrial; assay: Inhibition of PDK1 in human MG63 cells assessed as reduction in pyruvate dehydrogenase complex phosphorylation at ser232 residue after 12 hrs by high content analysis; assay type: cell-based
[15] = target: T1, [Pyruvate dehydrogenase (acetyl-transferring)] kinase isozyme 1, mitochondrial; assay: Inhibition of PDK1 in human MG63 cells assessed as reduction in pyruvate dehydrogenase complex phosphorylation at ser293 residue after 24 hrs by Western blot analysis; assay type: cell-based
[16] = target: T1, [Pyruvate dehydrogenase (acetyl-transferring)] kinase isozyme 1, mitochondrial; assay: Inhibition of PDK1 in human MG63 cells assessed as reduction in pyruvate dehydrogenase complex phosphorylation at ser232 residue after 24 hrs by Western blot analysis; assay type: cell-based
[17] = test system: MG-63; assay: Potency index, ratio of DCA EC50 to test compound EC50 for human MG63 cells; assay type: functional

T1 sequence (Q15118 whole entry): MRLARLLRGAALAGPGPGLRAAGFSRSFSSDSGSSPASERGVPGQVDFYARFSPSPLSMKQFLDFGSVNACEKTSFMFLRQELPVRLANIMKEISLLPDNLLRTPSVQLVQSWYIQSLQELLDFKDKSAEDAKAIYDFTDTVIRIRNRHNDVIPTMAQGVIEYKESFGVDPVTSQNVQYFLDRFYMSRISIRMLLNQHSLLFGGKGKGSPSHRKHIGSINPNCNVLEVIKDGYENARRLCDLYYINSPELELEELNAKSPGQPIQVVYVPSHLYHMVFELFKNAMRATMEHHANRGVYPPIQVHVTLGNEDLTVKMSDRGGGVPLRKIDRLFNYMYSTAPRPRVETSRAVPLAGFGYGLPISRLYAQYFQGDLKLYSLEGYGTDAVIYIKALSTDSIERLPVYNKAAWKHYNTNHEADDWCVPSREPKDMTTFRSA

With `O=C(O)C(Cl)Cl` [DICHLOROACETIC ACID] the pIC50 [1] was 2.05, the pEC50 [2] was 1.81 and the inhibition [3] was “Active”. The inhibition [4] was “Active”, the inhibition [5] was “Active” and the inhibition [6] was “Active”.

`COc1ccc(-c2c(C)c3ccc(OCCN4CCN(CCO)CC4)cc3oc2=O)cc1OC` gave an inhibition [7] of 80.5%, a pIC50 [8] of 5.53 and a Ratio IC50 [9] of over 1000. It also gave a pIC50 [1] of 5.28, an inhibition [10] of 18.7% and an inhibition [11] of 39.7%. The inhibition [12] was 78.3%, the inhibition [13] was “Dose-dependent effect” and the inhibition [14] was “Dose-dependent effect”. The inhibition [15] was “Dose-dependent effect”, the inhibition [16] was “Dose-dependent effect” and the Activity [2] was “Dose-dependent effect”. The pEC50 [2] was 4.84 and the “Ratio EC50” value [17] was over 1000.

`O=c1c(-c2ccc(Br)cc2)coc2cc(OCCN3CCN(CCO)CC3)ccc12` gave an inhibition [7] of 83.3%, a pIC50 [8] of 5.50 and a Ratio IC50 [9] of over 1000. For the same compound, the pIC50 [1] was 4.96, the inhibition [10] was 17.6% and the inhibition [11] was 49.3%. For the same compound, the inhibition [12] was 75.3%, the inhibition [13] was “Dose-dependent effect” and the inhibition [14] was “Dose-dependent effect”. For the same compound, the inhibition [15] was “Dose-dependent effect”, the inhibition [16] was “Dose-dependent effect” and the Activity [2] was “Dose-dependent effect”. The pEC50 [2] was 4.96 and the “Ratio EC50” value [17] was over 1000.
